Test results: patent publication US7390806B2, “Antibiotics containing borinic acid complexes and methods of use” (Anacor Pharmaceuticals, Inc., priority 2002, dated 2008)
In brackets after ≈: the same amount, converted by molar mass.

tested on: S. aureus ATCC 29213; assay: MIC determination, S. aureus ATCC 29213; assay type: cell-based, Staphylococcus aureus; conditions: Table 1

Compound | MIC S. aureus ATCC 29213 [micrograms per ml]
C=CB(Oc1cccc2cccnc12)c1cccc(C#N)c1 [Compound 40, (3-Cyanophenyl)vinylborinic acid 8-hydroxyquinoline ester] | 1
Oc1cccc2cccnc12 [Compound 81, 8-hydroxyquinoline] | 2
Oc1ccc(F)c2cccnc12 [Compound 12] | 0.125
Oc1cccc2cccnc12 [Compound 91, 8-hydroxyquinoline] | 2
Oc1cccc2cccnc12 [Compound 47, 8-hydroxyquinoline] | 1
Oc1cccc2cccnc12 [Compound 90, 8-hydroxyquinoline] | 2
Bis(ethynyl)borinic acid 8-Hydroxyquinoline [Compound 44] | 1
Cc1ccnc2c(O)cccc12 [Compound 14] | 0.125
Fc1cccc(B(Oc2cccc3cccnc23)C2CC2)c1 [Compound 70, (3-Fluorophenyl)cyclopropylborinic acid 8-hydroxyquinoline ester] | 2
Oc1cccc2cccnc12 [Compound 30, 8-hydroxyquinoline] | 1
Oc1cccc2cccnc12 [Compound 52, 8-hydroxyquinoline] | 2

same assay, conditions: Table 2

Compound | MIC S. aureus ATCC 29213 [micrograms per ml]
4-hydroxybenzimidazole [Compound 120] | 0.125

tested on: S. epidermidis ATCC 12228; assay: MIC determination, S. epidermidis ATCC 12228; assay type: cell-based, Staphylococcus epidermidis; conditions: Staphylococcus epidermidis, ATCC12228, Table 1; read-out: MIC S. epidermidis ATCC 12228

Compound | MIC [µg/mL]
Oc1ccc(F)c2cccnc12 [Compound 12] | 2 (≈ 12.3 µM)
Cc1ccnc2c(O)cccc12 [Compound 14] | 1 (≈ 6.28 µM)

same assay, conditions: Table 1

Compound | MIC S. epidermidis ATCC 12228 [micrograms per ml]
C=CB(Oc1cccc2cccnc12)c1cccc(C#N)c1 [Compound 40, (3-Cyanophenyl)vinylborinic acid 8-hydroxyquinoline ester] | 1
Oc1cccc2cccnc12 [Compound 81, 8-hydroxyquinoline] | 1
Oc1cccc2cccnc12 [Compound 91, 8-hydroxyquinoline] | 1
Oc1cccc2cccnc12 [Compound 47, 8-hydroxyquinoline] | 1
Oc1cccc2cccnc12 [Compound 90, 8-hydroxyquinoline] | 2
Bis(ethynyl)borinic acid 8-Hydroxyquinoline [Compound 44] | 1
Fc1cccc(B(Oc2cccc3cccnc23)C2CC2)c1 [Compound 70, (3-Fluorophenyl)cyclopropylborinic acid 8-hydroxyquinoline ester] | 1
Oc1cccc2cccnc12 [Compound 30, 8-hydroxyquinoline] | 0.5
Oc1cccc2cccnc12 [Compound 52, 8-hydroxyquinoline] | 4

same assay, conditions: Table 2

Compound | MIC S. epidermidis ATCC 12228 [micrograms per ml]
4-hydroxybenzimidazole [Compound 120] | 4

tested on: E. faecium CT-26; assay: MIC determination, E. faecium CT-26; assay type: cell-based, Enterococcus faecium; conditions: Enterococcus faecium, CT26, Table 1; read-out: MIC E. faecium CT-26

Compound | MIC [µg/mL]
Oc1ccc(F)c2cccnc12 [Compound 12] | 4 (≈ 24.5 µM)
Cc1ccnc2c(O)cccc12 [Compound 14] | 4 (≈ 25.1 µM)

same assay, conditions: Table 1

Compound | MIC E. faecium CT-26 [micrograms per ml]
C=CB(Oc1cccc2cccnc12)c1cccc(C#N)c1 [Compound 40, (3-Cyanophenyl)vinylborinic acid 8-hydroxyquinoline ester] | 2
Oc1cccc2cccnc12 [Compound 81, 8-hydroxyquinoline] | 4
Oc1cccc2cccnc12 [Compound 91, 8-hydroxyquinoline] | 2
Oc1cccc2cccnc12 [Compound 47, 8-hydroxyquinoline] | 2
Oc1cccc2cccnc12 [Compound 90, 8-hydroxyquinoline] | 2
Bis(ethynyl)borinic acid 8-Hydroxyquinoline [Compound 44] | 2
Fc1cccc(B(Oc2cccc3cccnc23)C2CC2)c1 [Compound 70, (3-Fluorophenyl)cyclopropylborinic acid 8-hydroxyquinoline ester] | 2
Oc1cccc2cccnc12 [Compound 30, 8-hydroxyquinoline] | 2
Oc1cccc2cccnc12 [Compound 52, 8-hydroxyquinoline] | 16

same assay, conditions: Table 2

Compound | MIC E. faecium CT-26 [micrograms per ml]
4-hydroxybenzimidazole [Compound 120] | 8

tested on: M. catarrhalis ATCC 25238; assay: MIC determination, M. catarrhalis ATCC 25238; assay type: cell-based; conditions: Moraxella catarrhalis, ATCC25238, Table 1; read-out: MIC M. catarrhalis ATCC 25238

Compound | MIC [µg/mL]
Cc1ccnc2c(O)cccc12 [Compound 14] | 0.5 (≈ 3.14 µM)

same assay, conditions: Table 1

Compound | MIC M. catarrhalis ATCC 25238 [micrograms per ml]
C=CB(Oc1cccc2cccnc12)c1cccc(C#N)c1 [Compound 40, (3-Cyanophenyl)vinylborinic acid 8-hydroxyquinoline ester] | 2
Oc1cccc2cccnc12 [Compound 81, 8-hydroxyquinoline] | 2
Oc1ccc(F)c2cccnc12 [Compound 12] | 2
Oc1cccc2cccnc12 [Compound 91, 8-hydroxyquinoline] | 1
Oc1cccc2cccnc12 [Compound 47, 8-hydroxyquinoline] | 1
Oc1cccc2cccnc12 [Compound 90, 8-hydroxyquinoline] | 2
Bis(ethynyl)borinic acid 8-Hydroxyquinoline [Compound 44] | 0.25
Fc1cccc(B(Oc2cccc3cccnc23)C2CC2)c1 [Compound 70, (3-Fluorophenyl)cyclopropylborinic acid 8-hydroxyquinoline ester] | 0.5

tested on: E. faecalis ATCC 29212; assay: MIC determination, E. faecalis ATCC 29212; assay type: cell-based, Enterococcus faecalis; conditions: Enterococcus faecalis, ATCC29212, Table 1; read-out: MIC E. faecalis ATCC 29212

Compound | MIC [µg/mL]
Oc1ccc(F)c2cccnc12 [Compound 12] | 8 (≈ 49 µM)
Cc1ccnc2c(O)cccc12 [Compound 14] | 64 (≈ 402 µM)

same assay, conditions: Table 1

Compound | MIC E. faecalis ATCC 29212 [micrograms per ml]
C=CB(Oc1cccc2cccnc12)c1cccc(C#N)c1 [Compound 40, (3-Cyanophenyl)vinylborinic acid 8-hydroxyquinoline ester] | 8
Oc1cccc2cccnc12 [Compound 81, 8-hydroxyquinoline] | 8
Oc1cccc2cccnc12 [Compound 91, 8-hydroxyquinoline] | 8
Oc1cccc2cccnc12 [Compound 47, 8-hydroxyquinoline] | 8
Oc1cccc2cccnc12 [Compound 90, 8-hydroxyquinoline] | 8
Bis(ethynyl)borinic acid 8-Hydroxyquinoline [Compound 44] | 16
Fc1cccc(B(Oc2cccc3cccnc23)C2CC2)c1 [Compound 70, (3-Fluorophenyl)cyclopropylborinic acid 8-hydroxyquinoline ester] | 64
Oc1cccc2cccnc12 [Compound 30, 8-hydroxyquinoline] | 2
Oc1cccc2cccnc12 [Compound 52, 8-hydroxyquinoline] | 8

same assay, conditions: Table 2

Compound | MIC E. faecalis ATCC 29212 [micrograms per ml]
4-hydroxybenzimidazole [Compound 120] | 8

tested on: S. pneumoniae ATCC 6301; assay: MIC determination, S. pneumoniae ATCC 6301; assay type: cell-based, Streptococcus pneumoniae; conditions: Streptococcus pneumoniae, ATCC6301, Table 1; read-out: MIC S. pneumoniae ATCC 6301

Compound | MIC [µg/mL]
Oc1ccc(F)c2cccnc12 [Compound 12] | 2 (≈ 12.3 µM)
Cc1ccnc2c(O)cccc12 [Compound 14] | 1 (≈ 6.28 µM)

same assay, conditions: Table 1

Compound | MIC S. pneumoniae ATCC 6301 [micrograms per ml]
C=CB(Oc1cccc2cccnc12)c1cccc(C#N)c1 [Compound 40, (3-Cyanophenyl)vinylborinic acid 8-hydroxyquinoline ester] | 1
Oc1cccc2cccnc12 [Compound 81, 8-hydroxyquinoline] | 2
Oc1cccc2cccnc12 [Compound 91, 8-hydroxyquinoline] | 2
Oc1cccc2cccnc12 [Compound 47, 8-hydroxyquinoline] | 1
Oc1cccc2cccnc12 [Compound 90, 8-hydroxyquinoline] | 1
Bis(ethynyl)borinic acid 8-Hydroxyquinoline [Compound 44] | 1
Fc1cccc(B(Oc2cccc3cccnc23)C2CC2)c1 [Compound 70, (3-Fluorophenyl)cyclopropylborinic acid 8-hydroxyquinoline ester] | 1
